The results in this text go back to patent US20230147053A1, “FUSED N-HETEROCYCLIC COMPOUNDS AND METHODS OF USE THEREOF” (Araxes Pharma LLC, priority 2017, published 2023).

This assay concerns the target T1, KRAS G12C 1-169, his-tagged protein, GDP-loaded (Homo sapiens, UniProt P01116, G12C).
T1 construct: KRAS G12C 1-169, his-tagged protein, GDP-loaded
Nature of the assay: Biochemical assay: covalent binding (modification) of KRAS G12C measured by mass spectrometry. The note with it: covalent binding to KRAS G12C after a thirty minute incubation period. How it is done:
Test compounds were prepared as 10 mM stock solutions in DMSO (Fisher cat #BP-231-100). KRAS G12C 1-169, his-tagged protein, GDP-loaded was diluted to 2 μM or 0.5 μM in buffer (20 mM Hepes, 150 mM NaCl, 1 mM MgCl2). Compounds were tested for activity as follows:
Compounds were diluted to 50× final test concentration in DMSO in 96-well storage plates. Compound stock solutions were vortexed before use and observed carefully for any sign of precipitation. Dilutions were as follow: • For 100 μM final compound concentration, compounds were diluted to 5000 μM (5 μL 10 mM compound stock+5 μL DMSO and mixed well by pipetting. • For 30 μM final compound concentration, compounds were diluted to 1500 μM (3 μL 10 mM compound stock+17 μL DMSO) and mixed well by pipetting. • For 10 μM final compound concentration, compounds were diluted to 500 μM (2 μL 10 mM compound stock+38 μL DMSO) and mixed well by pipetting. 49 μL of the stock protein solution was added to each well of a 96-well PCR plate (Fisher cat #1423027). 1 μl of the diluted 50× compounds were added to appropriate wells in the PCR plate using 12-channel pipettor. Reactions were mixed carefully and thoroughly by pipetting up/down with a 200 μL multi-channel pipettor. The plate was sealed well with aluminum plate seal, and stored in drawer at room temperature for 10 minutes, 30 minutes, 2 hours or 24 hours. 5 μL of 2% formic acid (Fisher cat #A117) in de-ionized H2O was then added to each well followed by mixing with a pipette. The plate was then resealed with aluminum seal and stored on dry ice until analyzed as described below.
The above described assays were analyzed by mass spectrometry according to one of the following two procedures:
The MS instrument is set to positive polarity, 2 GHz resolution, and low mass (1700) mode and allowed to equilibrate for 30 minutes. The instrument is then calibrated, switched to acquisition mode and the appropriate method loaded.
After another 30 minute equilibration time, a blank batch (i.e., buffer) is run to ensure equipment is operating properly. The samples are thawed at 37° C. for 10 minutes, briefly centrifuged, and transfer to the bench top. Wells A1 and H12 are spiked with 1 μL 500 μM internal standard peptide, and the plates centrifuged at 2000×g for 5 minutes. The method is then run and masses of each individual well recorded.
The masses (for which integration data is desired) for each well are pasted into the platemap and exported from the analysis. Masses for the internal standards are exported as well. The data at 50 ppm is extracted for the +19 charge state, and identity of well A1 is assigned using the internal standard spike and integrated. Peak data is exported as a TOF list and the above steps are repeated individually, for the +20, 21, 22, 23, 24, and 25 charge states.
The masses and peak intensities of KRAS G12C protein species were measured using a Dionex RSLCnano system (Thermo Scientific) connected to a Q Exactive Plus mass spectrometer (Thermo Scientific).
[…] of sample was each loaded onto a Aeris™ 3.6 μm WIDEPORE C4 200 A, LC Column 50×2.1 mm column maintained at 40° C. at a flow rate of 600 μL/min with […] (0.1% formic acid in acetonitrile). The liquid chromatography conditions were 20% solvent B for 1 minute, 20% to 60% solvent B for 1.5 minutes, 60% to 90% solvent for 0.5 minute, 90% solvent B for 0.2 minute, 90% to 20% solvent B for 0.2 minute, and then equilibrated for 1.6 minute before the following sample injection. The flow rate was maintained at 600 μL/min throughout the sample analysis.
The mass spectrometer was operated in profile mode at a resolution of 17500, 5 microscans, using 50 msec max injection time and an AGC target of 1×10^6, and a full mass range from 800-1850 m/z was recorded. The HCD trapping gas was optimized for maximum sensitivity for intact proteins. […]

On to `C=CC(=O)N1CC(c2ccc3cc(-c4cc(O)cc5ccccc45)ncc3c2)C1` [Compound 26, 1-(3-(3-(3-hydroxynaphthalen-1-yl)isoquinolin-7-yl)azetidin-1-yl)prop-2-en-1-one], for which the Binding % entry was “++ (++ indicates binding activity from 5% to 50%)”.

In the case of `C=CC(=O)N1CC(c2ccc3c(Nc4cc(O)cc5ccccc45)ncnc3c2)C1` [Compound 36, 1-(3-(4-((3-hydroxynaphthalen-1-yl)amino)quinazolin-7-yl)azetidin-1-yl)prop-2-en-1-one], the Binding % result is recorded as “+ (+ indicates binding activity up to 5%)”.

`C=CC(=O)N1CCC(c2ccc3c(c2)CCN(c2c(C)ccc4[nH]ncc24)C3=O)C1` (centres unmarked) [Compound 32, 6-(1-acryloylpyrrolidin-3-yl)-2-(5-methyl-1H-indazol-4-yl)-3,4-dihydroisoquinolin-1(2H)-one]: the Binding % result was “+ (+ indicates binding activity up to 5%)”.

As to `C=CC(=O)N1CC(c2ccc3c(=O)n(-c4c(C)ccc5[nH]ncc45)ccc3c2)C1` [Compound 19, 6-(1-acryloylazetidin-3-yl)-2-(5-methyl-1H-indazol-4-yl)isoquinolin-1(2H)-one], the Binding % result is recorded as “+ (+ indicates binding activity up to 5%)”.

Take `C=CC(=O)N1CC(c2ccc3[nH]c(-c4cc(O)cc5ccccc45)cc3c2)C1` [Compound 14, 1-(3-(2-(3-hydroxynaphthalen-1-yl)-1H-indol-5-yl)azetidin-1-yl)prop-2-en-1-one]: the Binding % entry is “+++ (+++ indicates binding activity greater than 50%)”.

`C=CC(=O)N1CC(NC(=O)c2ccc3c(-c4cc(O)cc5ccccc45)ccnc3c2)C1` [Compound 39, N-(1-acryloylazetidin-3-yl)-4-(3-hydroxynaphthalen-1-yl)quinoline-7-carboxamide]: the Binding % entry was “++ (++ indicates binding activity from 5% to 50%)”.

As to `C=CC(=O)N1CC(c2ccc3c(c2)CN(c2cc(O)cc4ccccc24)C3=O)C1` [Compound 8, 5-(1-acryloylazetidin-3-yl)-2-(3-hydroxynaphthalen-1-yl)isoindolin-1-one], the Binding % result is reported as “+++ (+++ indicates binding activity greater than 50%)”.

For `C=CC(=O)N1CC(c2ccc3c(c2)CN(c2cc(O)cc4ccccc24)C3)C1` [Compound 6, 1-(3-(2-(3-hydroxynaphthalen-1-yl)isoindolin-5-yl)azetidin-1-yl)prop-2-en-1-one], the Binding % entry is given as “+++ (+++ indicates binding activity greater than 50%)”.

Regarding `C=CC(=O)N1CC(c2ccc3cn(-c4cc(O)cc5ccccc45)c(=O)cc3c2)C1` [Compound 22, 6-(1-acryloylazetidin-3-yl)-2-(3-hydroxynaphthalen-1-yl)isoquinolin-3(2H)-one], the Binding % result was “+ (+ indicates binding activity up to 5%)”.

For `C=CC(=O)N1CC(c2ccc3c(c2)NC(=O)N(c2c(C)ccc4[nH]ncc24)C3)C1` [Compound 25, 7-(1-acryloylazetidin-3-yl)-3-(5-methyl-1H-indazol-4-yl)-3,4-dihydroquinazolin-2(1H)-one], the Binding % result is recorded as “++ (++ indicates binding activity from 5% to 50%)”.

For the compound `C=CC(=O)N1CC(c2ccc3c(=O)n(-c4cc(O)cc5ccccc45)ccc3c2)C1` [Compound 18, 6-(1-acryloylazetidin-3-yl)-2-(3-hydroxynaphthalen-1-yl)isoquinolin-1(2H)-one], the Binding % result is “+++ (+++ indicates binding activity greater than 50%)”.

On to `C=CC(=O)N1CC(Nc2cccc3c(-c4cc(O)cc5ccccc45)ccnc23)C1` [Compound 37, 1-(3-((4-(3-hydroxynaphthalen-1-yl)quinolin-8-yl)amino)azetidin-1-yl)prop-2-en-1-one], for which the Binding % result was “+++ (+++ indicates binding activity greater than 50%)”.

For the compound `C=CC(=O)N1CC(c2ccc3cc(-c4cc(O)cc5ccccc45)[nH]c3c2)C1` [Compound 33, 1-(3-(2-(3-hydroxynaphthalen-1-yl)-1H-indol-6-yl)azetidin-1-yl)prop-2-en-1-one], the Binding % entry was “++ (++ indicates binding activity from 5% to 50%)”.

`C=CC(=O)N1CC(c2ccc3cc(-c4c(C)ccc5[nH]ncc45)[nH]c3c2)C1` [Compound 35, 1-(3-(2-(5-methyl-1H-indazol-4-yl)-1H-indol-6-yl)azetidin-1-yl)prop-2-en-1-one]: the Binding % entry was “+ (+ indicates binding activity up to 5%)”.

As to `C=CC(=O)N1CC(c2ccc3c(c2)NC(=O)N(c2cc(O)cc4ccccc24)C3)C1` [Compound 24, 7-(1-acryloylazetidin-3-yl)-3-(3-hydroxynaphthalen-1-yl)-3,4-dihydroquinazolin-2(1H)-one], the Binding % result is on record as “+++ (+++ indicates binding activity greater than 50%)”.

As to `C=CC(=O)N1CC(c2ccc3c(c2)C(=O)N(c2c(C)ccc4[nH]ncc24)C3)C1` [Compound 11, 6-(1-acryloylazetidin-3-yl)-2-(5-methyl-1H-indazol-4-yl)isoindolin-1-one], the Binding % entry is listed as “+ (+ indicates binding activity up to 5%)”.

With `C=CC(=O)N1CC(c2ccc3c(c2)cc(-c2cc(O)cc4ccccc24)n3CC(N)=O)C1` [Compound 40, 2-(5-(1-acryloylazetidin-3-yl)-2-(3-hydroxynaphthalen-1-yl)-1H-indol-1-yl)acetamide], the Binding % entry is “++ (++ indicates binding activity from 5% to 50%)”.

Consider `C=CC(=O)N1CC(c2ccc3c(c2)CN(c2c(C)ccc4[nH]ncc24)C3=O)C1` [Compound 9, 5-(1-acryloylazetidin-3-yl)-2-(5-methyl-1H-indazol-4-yl)isoindolin-1-one], for which the Binding % result is on record as “+ (+ indicates binding activity up to 5%)”.

Regarding `C=CC(=O)N1CC(c2ccc3cc(-c4cc(O)cc5ccccc45)n(CC(N)=O)c3c2)C1` [Compound 34, 2-(6-(1-acryloylazetidin-3-yl)-2-(3-hydroxynaphthalen-1-yl)-1H-indol-1-yl)acetamide], the Binding % entry is reported as “+ (+ indicates binding activity up to 5%)”.

Consider `C=CC(=O)N1CC(c2ccc3c(c2)C(=O)N(c2cc(O)cc4ccccc24)C3)C1` [Compound 10, 6-(1-acryloylazetidin-3-yl)-2-(3-hydroxynaphthalen-1-yl)isoindolin-1-one], for which the Binding % result is listed as “++ (++ indicates binding activity from 5% to 50%)”.

For the compound `C=CC(=O)N1CC(c2ccc3cn(-c4c(C)ccc5[nH]ncc45)c(=O)cc3c2)C1` [Compound 23, 6-(1-acryloylazetidin-3-yl)-2-(5-methyl-1H-indazol-4-yl)isoquinolin-3(2H)-one], the Binding % result is on record as “+ (+ indicates binding activity up to 5%)”.

For the compound `C=CC(=O)N1CC(c2ccc3c(Nc4c(C)ccc5[nH]ncc45)ncnc3c2)C1` [Compound 38, 1-(3-(4-((5-methyl-1H-indazol-4-yl)amino)quinazolin-7-yl)azetidin-1-yl)prop-2-en-1-one], the Binding % result is listed as “+ (+ indicates binding activity up to 5%)”.

`C=CC(=O)N1CC(c2ccc3c(c2)CCCN(c2cccc4[nH]ncc24)C3)C1` [Compound 5, 1-(3-(2-(1H-indazol-4-yl)-2,3,4,5-tetrahydro-1H-benzo[c]azepin-7-yl)azetidin-1-yl)prop-2-en-1-one]: the Binding % result is given as “+ (+ indicates binding activity up to 5%)”.
